According to article PMC11191317, “PNSC928, a plant-derived compound, specifically disrupts CtBP2-p300 interaction and reduces inflammation in mice with acute respiratory distress syndrome” (Biology Direct, 2024):

Test system: C57BL/6 mice
Assay: In vivo toxicity in C57BL/6 mice (body weight, serum cytokines, liver and kidney function, H&E)
Set-up: species or system mouse
Settings: for Body weight: C57BL/6 mice, 6 days, MTOB 400 and 800, NSC95397 2 and 4, C646 5 and 10, A-485 40 and 80, TPCA1 10 and 20, BOT64 30 and 60 mg/kg
Procedure: Whole blood samples were allowed to stand undisturbed at room temperature for 15 min before being centrifuged at 1,000 × g for 10 min. The supernatant serum and BALF were used to measure concentrations of IL-1β, IL-6, IL-15, IL-18, and TNF-α with specific enzyme-linked immunosorbent assay (ELISA) kits as per manufacturer guidelines. The ELISA kits used were: IL-1β (Thermo Fisher; #KMC0011), IL-6 (Thermo Fisher; #KMC0061), IL-15 (Abcam; Shanghai, China; #ab275898), IL-18 (Thermo Fisher; #BMS618-3), and TNF-α (Thermo Fisher; #BMS607-3). Total BALF protein levels were measured using the BCA Protein Assay Kit (Abcam; #ab102536) according to the manufacturer’s protocol.
Serum activities or levels of alanine aminotransferase (ALT), aspartate aminotransferase (AST), alkaline phosphatase (ALP), blood urea nitrogen (BUN), and creatinine were measured using commercially available assay kits, including the ALT Activity Assay Kit (Abcam; #ab105134), AST Activity Assay Kit (Abcam; #ab105135), ALP Assay Kit (Abcam; #ab83369), BUN Colorimetric Detection Kit (Thermo Fisher; #EIABUN), and Creatinine Assay Kit (Abcam; #ab65340). All experimental procedures were conducted according to the respective manufacturer’s protocols.
Lung, heart, liver, and kidney tissues were collected from various groups of mice, including ARDS, ARDS + MTOB, ARDS + NSC95397, ARDS + C646, ARDS + A-485, ARDS + TPCA1, ARDS + BOT64, and ARDS + PNSC928. The tissues were fixed in 10% neutral-buffered formalin (Sigma-Aldrich; #HT501128) for 48 h, then dehydrated through a graded ethanol series (70%, 80%, 90%, and 100%, for 30 min each). The dehydrated tissues were embedded in paraffin blocks and allowed to solidify. The paraffin blocks were sectioned at 5 μm, with the sections floated on a water bath to remove wrinkles before being transferred onto glass slides. The slides were dried, dewaxed with xylene, and rehydrated through a reverse ethanol series (100%, 90%, 80%, and 70%, for 30 min each), followed by a final rinse in distilled water. The rehydrated sections were stained using the Hematoxylin and Eosin Kit (Abcam; #ab245880) according to the manufacturer’s guidelines. After staining, the sections were dehydrated through a graded ethanol series (70%, 80%, 90%, and 100%, for 30 min each), then cleared with xylene. The sections were mounted with a mounting medium (Abcam; #ab64230) and imaged using a Nikon light microscope for tissue morphology.
C57BL/6 mice were administrated with MTOB (400 and 800 mg/kg), NSC95397 (2 and 4 mg/kg), C646 (5 and 10 mg/kg), A-485 (40 and 80 mg/kg), TPCA1 (10 and 20 mg/kg), BOT64 (30 and 60 mg/kg) for a duration of 6 days (n = 10 for each group). (A-F) Body weights were measured every two days. (G-K) Serum concentrations of different groups of mice. (G) IL-1β, (H) IL-6, (I) IL-15, (J) IL-18, and (K) TNF-α. *P < 0.05
C57BL/6 mice were administrated with MTOB (400 and 800 mg/kg), NSC95397 (2 and 4 mg/kg), C646 (5 and 10 mg/kg), A-485 (40 and 80 mg/kg), TPCA1 (10 and 20 mg/kg), and BOT64 (30 and 60 mg/kg) for a duration of 6 days (n=10 for each group). (A) Serum concentration of IFN-γ in different groups of mice. (B) Serum BUN concentration. (C) Activities of ALT, AST, and ALP in serum. (D) Serum creatinine concentration. (E) Representative H&E staining images of lung, liver, kidney, and heart from the following groups of mice: Control, MTOB (800 mg/kg), NSC95397 (4 mg/kg), C646 (10 mg/kg), A-485 (80 mg/kg), TPCA1 (20 mg/kg), and BOT64 (60 mg/kg). Bars=100 μm. For the significant difference analysis in B-D, all drug-treated groups were compared with the Control group of mice. *P<0.05; **P<0.01; ***P<0.001.
[…] (A) Serum ALT activity. (B) Serum AST activity. (C) Serum ALP activity. (D) Serum BUN concentration. (E) Serum creatinine concentration. (F) Body weights were recorded every two days. (G) Representative H&E staining images of lung, liver, kidney, and heart. Bars=100 μm.

[1] = PNSC928 0, 5, 10, and 20 mg/kg at two-day intervals for 6 days

| SMILES | Body weight | also measured |
| --- | --- | --- |
| CNC(=O)Nc1ccc2c(c1)CC[C@@]21OC(=O)N(CC(=O)N(Cc2ccc(F)cc2)[C@@H](C)C(F)(F)F)C1=O [A-485] | significant decrease in body weight | – |
| CC1(C)CC(=O)c2sc(=Nc3ccccc3)oc2C1 [BOT64] | significant decrease in body weight | – |
| CC1=NN(c2ccc(C(=O)O)cc2)C(=O)/C1=C\c1ccc(-c2cc(C)c(C)cc2[N+](=O)[O-])o1 [C646] | significant decrease in body weight | – |
| CSCCC(=O)C(=O)O [MTOB] | significant decrease in body weight | – |
| O=C1C(SCCO)=C(SCCO)C(=O)c2ccccc21 [NSC95397] | significant decrease in body weight | – |
| CC(=CCCC1=CCC(C2COC(=O)C2)OC1O)CCC1=C(C)CCCC1(C)C (stereo not shown) [PNSC928] | – | Activities and levels of ALT, AST, ALP, BUN, and creatinine [1]: no discernible alterations; Histological examination of lung, heart, liver, and kidney [1]: no conspicuous damage; Mouse body weights [1]: did not affect mouse body weights; Behavioral activities (feeding, balance ability, sleeping patterns) (PNSC928 0, 5, 10, and 20 mg/kg at two-day intervals for 6 days, data not shown): did not affect |
| NC(=O)Nc1sc(-c2ccc(F)cc2)cc1C(N)=O [TPCA1] | significant decrease in body weight | – |
